Source: US20240166658A1, “PORPHYRIN DERIVATIVES AND USES THEREOF” (University of Tasmania, priority 2021, published 2024)

Assays:
[1] = UV-Vis host-guest titration, association constant; assay type: binding; conditions: host (9) in dichloromethane; triplicate, TBA salt and acid; Bindfit
Method: (§1) Path length of the quartz cell was 1 cm. For UV-vis titrations, a stock solution of host was prepared (2.2×10^−3 M) in dichloromethane (DCM) and serially diluted to the required concentrations. Working solutions of tetrabutylammonium (TBA) anion salts or guest molecules were prepared in the same manner Host−guest titrations used solutions of guest prepared in the working concentration of host solution, according to the procedure of Thordarson, 2011.
(§2) UV-vis spectroscopic host−guest titrations were performed in accordance with the methodologies of Thordarson, 2011. Solutions of host in dichloromethane were prepared. Solutions of guest were then prepared in the host solution. Aliquots of guest in host solution were added to host solution and sequentially analysed until a known molar equivalent of guest was added. The amount of guest added per aliquot was ascertained by a preliminary screening experiment; strong association constants required smaller molar equivalents so more information could be collected. By way of example, host (9) responded to 0.1 molar equivalent of PFBA strongly, so an addition of 1 molar equivalent of PFBA would result in a loss of information. The inverse is true for weaker binding interactions. […]
(§3) A host solution of host (9) in dichloromethane was monitored using UV-Vis analysis as 0.5-10 equivalents of each PFAS was added. […]

[2] = UV-Vis host-guest titration, association constant; assay type: binding; conditions: host (9) in dichloromethane; triplicate, TBA salt and acid; Bindfit; remark: listed apart in the source
Method: as §1, §2, §3

[3] = Anion selectivity screening with TBA salts, UV-Vis; assay type: binding; conditions: dichloromethane
Method: The selectivity of the host (9) for anions was investigated visually and spectroscopically. The TBA salts of anions commonly found in significant concentrations in water samples were added in 10 molar equivalents to solutions of host to give preliminary indications of host−guest interactions prior to more extensive investigation. Although not an accurate proxy of real-world matrix concentrations, it was thought that the binding of any anions would indicate any affinity for other anions.

[4] = Colorimetric calibration chart, RGB response to known PFOA concentrations; conditions: PFOA 0.7 ppm, dichloromethane
Method: The host molecules were combined with known concentrations of PFOA to provide RGB colour responses, which were used to create a colorimetric calibration chart that could be trialled as an indicator for estimating the total concentration of a range of any PFCAs. Solutions of each host molecule (1.00×10^−5 M) were prepared in dichloromethane. Solutions of PFOA in dichloromethane were prepared across a range of concentrations (0→16 ppm, 4.00×10^−5 M). Each host (2 mL) was combined with each PFOA concentration (1 mL, final concentration 0→1.33×10^−5 M) and photographed under equivalent lighting conditions. The average colour of each solution was then found using ImageJ RGB analysis, and a colour chart was produced.
For this reason, parametrization of the RGB values can be useful for interpreting results. The RGB response parameter can be calculated using the RGB values of the “blank” host solution (Šafranko et al., 2019) and the effective intensities of the individual RGB values of a sample (Tahir et al., 2016):
Here, H, indicates the values for the host solution, and S, indicates the response for a sample containing a PFCA, so that ΔR, ΔG, and ΔB give the colour differences. The RGB parameter is the response due to the relative difference in the RGB intensities:
The RGB values collected for each host with a range of known concentrations of PFOA in dichloromethane were parameterized and used to determine a relationship between concentration of analyte and RGB response values. […] The relationship between RGB response values and concentrations of PFOA could now be tested for accuracy in determining the concentration of any PFCA.

[5] = RGB response, low PFCA concentration
From the text: (§4) RGB response curves were established by combining solutions of host (12) (5.01×10^−6 M) with solutions of PFOA (0-16 ppm, 3.86×10^−5 M) in dichloromethane. […] Thus, when establishing a calibration curve, the relative proportion of free host to host−PFCA complex limiting the variability of colour response must be considered for the application.
In the “low” PFCA concentration experiment, the RGB response values had the greatest rate of change from 0-40 ppb PFOA and appeared to level out between 40-80 ppb PFOA. In that instance, the regression was fit for a host : guest ratio of 0-0.8. To probe the sensor's response to a mixture of PFCAs, samples containing combinations of PFHxA, PFHpA, and PFDA in dichloromethane (7-28 ppb) were prepared and the RGB responses were collected. The PFCA concentrations for the samples were predicted using the PFOA regression (y=0.0591 ln(x)+0.037, R^2=0.9771).
The RGB response values can differentiate between 0 and 1 ppb PFOA numerically on the regression, but to determine the visual detectability, the ΔE values can be calculated. […] Samples from 0-5 ppb PFOA gave a colour change that could be determined as different from the starting host solution (ΔE=4-8) (Table 11). […] Thus, a conservative visual limit of detection of 10 ppb PFCA may be considered for an untrained observer making threshold analysis.

[6] = RGB response curve, high PFCA concentration; conditions: host 5.01×10^−6 M, dichloromethane
From the text: The present inventors investigated the colorimetric responses for host (12) with “high” concentrations of PFCA (where [host]<[guest]), and “low” concentrations of PFCA (where [host]>[guest]). Generally, RGB response values will increase with increasing concentrations of PFCA until the host has been saturated; beyond the saturation limit, RGB response values are similar. When there was an excess of guest, the response values could only be used as a threshold indication for PFCA concentrations.
as §4
For the “high” PFCA concentration experiment, the PFOA generated calibration curve (y=0.0401 ln(x)+0.2366, R^2=0.9677) (FIG. 17) begins to level out at ca. 2 ppm. Above that concentration, the RGB response values are difficult to differentiate.

Row | Structure (SMILES) | K value (averaged association constant Ka) [1] | K value (averaged association constant Ka) [2] | shift in the Q band ([3]; 10 molar equivalents of TBA salt) [nm] | UV-Vis change after addition of anion ([3]; 10 molar equivalents of TBA salts) | ΔE between host and lowest PFOA concentration [4] | ΔE vs host solution ([5]; 1.3 ppb PFOA) | conservative visual limit of detection ([5]; PFCA, untrained observer, threshold analysis) [ppb] | ΔE (Host − PFCA) ([5]; PFOA 1 ppb) | ΔE (Host − PFCA) ([5]; PFOA 3 ppb) | ΔE (Host − PFCA) ([5]; PFOA 5 ppb) | ΔE (Host − PFCA) ([5]; PFOA 10 ppb) | ΔE (Host − PFCA) ([5]; PFOA 21 ppb) | ΔE (Host − PFCA) ([5]; PFOA 41 ppb) | ΔE (Host − PFCA) ([5]; PFOA 83 ppb) | ΔE vs starting host solution ([5]; samples from 0-5 ppb PFOA) | PFOA concentration at which calibration curve begins to level out [6]
1 | O=C(Nc1ccccc1-c1c2nc(c(-c3ccccc3NC(=O)C(F)(F)C(F)(F)C(F)(F)C(F)(F)C(F)(F)C(F)(F)C(F)(F)F)c3ccc([nH]3)c(-c3ccccc3NC(=O)C(F)(F)C(F)(F)C(F)(F)C(F)(F)C(F)(F)C(F)(F)C(F)(F)F)c3nc(c(-c4ccccc4NC(=O)C(F)(F)C(F)(F)C(F)(F)C(F)(F)C(F)(F)C(F)(F)C(F)(F)F)c4ccc1[nH]4)C=C3)C=C2)C(F)(F)C(F)(F)C(F)(F)C(F)(F)C(F)(F)C(F)(F)C(F)(F)F [host (9), α,α,α,α-5,10,15,20-tetrakis(2-(pentadecafluorooctanoylamino)phenyl)porphyrin] | 6585 | 15272 | ~32 | no significant change | 11 |  |  |  |  |  |  |  |  |  |  | 
2 | O=C(Nc1ccccc1-c1c2nc(c(-c3ccccc3NC(=O)C(F)(F)C(F)(F)C(F)(F)C(F)(F)C(F)(F)C(F)(F)C(F)(F)C(F)(F)C(F)(F)C(F)(F)C(F)(F)F)c3ccc([nH]3)c(-c3ccccc3NC(=O)C(F)(F)C(F)(F)C(F)(F)C(F)(F)C(F)(F)C(F)(F)C(F)(F)C(F)(F)C(F)(F)C(F)(F)C(F)(F)F)c3nc(c(-c4ccccc4NC(=O)C(F)(F)C(F)(F)C(F)(F)C(F)(F)C(F)(F)C(F)(F)C(F)(F)C(F)(F)C(F)(F)C(F)(F)C(F)(F)F)c4ccc1[nH]4)C=C3)C=C2)C(F)(F)C(F)(F)C(F)(F)C(F)(F)C(F)(F)C(F)(F)C(F)(F)C(F)(F)C(F)(F)C(F)(F)C(F)(F)F [host (12), α,α,α,α-5,10,15,20-tetrakis(2-(tricosafluorododecanoylamino)phenyl) porphyrin] |  |  |  |  | 24 | ≥ 2 | 10 | 4 | 6 | 8 | 11 | 12 | 15 | 17 | 4-8 | ca. 2 ppm
